Where two headings read alike, the source gives them in different places.
Experiments:
[1] = target: T1, TYK2 (JH2domain-pseudokinase) (Homo sapiens, UniProt P29597); experiment: TYK2 JH2 domain binding assay (KINOMEscan)
T1 construct: TYK2 (JH2domain-pseudokinase)-tagged T7 phage strains were prepared in an E. coli host derived from the BL21 strain; made in house; host or cells: E. coli BL21-derived host (T7 phage) or HEK-293 cells
Summary of the method: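 Kd values come from nonlinear least-squares fits of 11-point 3-fold dilutions (mostly 30,000 nM top, lowered when Kd fell below 0.5 nM). Test compound competed with bead-bound biotinylated ligand for qPCR-tagged TYK2 pseudokinase (JH2) domain, shaken 1 h at room temperature, with about 1% final DMSO.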

[2] = test system: STAT1/3 through TYK2/JAK1; experiment: IFNa induced STAT phosphorylation in HEK293 cells (SIE-bla reporter gene); format: cell-based; conditions: HEK293T-sie-bla cells, IFNa at EC80, 4 hours, read-out: Inhibition of IFNa induced STAT phosphorylation HEK293 cells IC50
Summary of the method: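 Read-out was FRET from a β-lactamase reporter under a SIE promoter in HEK293T cells, with substrate added after a 4 h, 37°C co-incubation of compound and EC80 IFNa and left overnight in the dark. Compounds ran as 10-point 1/5 dilutions at 0.1% final DMSO; four-parameter log fit gave IC50.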

T1 sequence (P29597 589-875 limits assumed): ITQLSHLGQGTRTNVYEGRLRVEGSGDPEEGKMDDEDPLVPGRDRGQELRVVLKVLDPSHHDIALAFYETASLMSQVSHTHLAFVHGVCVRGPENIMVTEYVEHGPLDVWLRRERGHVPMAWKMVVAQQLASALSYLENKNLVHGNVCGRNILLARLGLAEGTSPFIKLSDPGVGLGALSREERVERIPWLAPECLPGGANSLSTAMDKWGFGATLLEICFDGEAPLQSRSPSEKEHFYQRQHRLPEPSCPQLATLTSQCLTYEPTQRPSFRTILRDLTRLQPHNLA

Compound	Kd [1] [nM]	IC50 ([2]; Homo sapiens, HEK293) [nM]	IC50 [2] [nM]
COc1c(Nc2cc(Nc3cc(C)nc(C)n3)ncn2)ccc(F)c1F [Example 19, N4-(3,4-difluoro-2-methoxy-phenyl)-N6-(2,6-dimethylpyrimidin-4-yl)pyrimidine-4,6-diamine]	1 to 10	> 1000	
COc1cccc(Nc2cc(Nc3cc(C)nc(C)n3)ncn2)c1OC [Example 20, N4-(2,3-dimethoxyphenyl)-N6-(2,6-dimethylpyrimidin-4-yl)pyrimidine-4,6-diamine]	0.2 to 1	100 to 1000	
Cc1cc(Nc2cc(Nc3ccc(-c4nc(C)nn4C)cc3N(C)S(C)(=O)=O)ncn2)nc(C)n1 [Example 99, N-[2-[[6-[(2,6-dimethylpyrimidin-4-yl)amino]pyrimidin-4-yl]amino]-5-(2,5-dimethyl-1,2,4-triazol-3-yl)phenyl]-N-methyl-methanesulfonamide]	0.2 to 1	10 to 100	
COc1cc(-c2nccn2C)ccc1Nc1cc(Nc2cc(C)nc(C)n2)ncn1 [Example 91, N4-(2,6-dimethylpyrimidin-4-yl)-N6-[2-methoxy-4-(1-methylimidazol-2-yl)phenyl]pyrimidine-4,6-diamine]	1 to 10	100 to 1000	
COc1cc(-c2ncn(C)n2)ccc1Nc1cc(Nc2cc(C)nc(C)n2)ncn1 [Example 85, N6-(2,6-dimethylpyrimidin-4-yl)-N4-[2-methoxy-4-(1-methyl-1,2,4-triazol-3-yl)phenyl]pyrimidine-4,6-diamine]	1 to 10	10 to 100	
Cc1cc(Nc2cc(Nc3ncc(-c4cc(C(F)(F)F)nn4C)cc3N(C)S(C)(=O)=O)ncn2)nc(C)n1 [Example 87, N-[2-[[6-[(2,6-dimethylpyrimidin-4-yl)amino]pyrimidin-4-yl]amino]-5-[2-methyl-5-(trifluoromethyl)pyrazol-3-yl]-3-pyridyl]-N-methyl-methanesulfonamide]	0.2 to 1	> 1000	
Cc1cc(Nc2cc(Nc3nc(C)ccc3S(C)(=O)=O)ncn2)ncn1 [Example 156, N6-(6-methyl-3-methylsulfonyl-2-pyridyl)-N4-(6-methylpyrimidin-4-yl)pyrimidine-4,6-diamine]	1 to 10	> 1000	
COc1ccc(C)nc1Nc1cc(Nc2cc(C)nc(C)n2)ncn1 [Example 8, N4-(2,6-dimethylpyrimidin-4-yl)-N6-(3-methoxy-6-methyl-2-pyridyl)pyrimidine-4,6-diamine]	> 10	> 1000	
COc1c(Nc2cc(Nc3cc(C)nc(C)n3)ncn2)ccc(F)c1-c1ncn(C)n1 [Example 64, N4-(2,6-dimethylpyrimidin-4-yl)-N6-[4-fluoro-2-methoxy-3-(1-methyl-1,2,4-triazol-3-yl)phenyl]pyrimidine-4,6-diamine]	0.2 to 1	100 to 1000	
COc1cc(C(F)(F)F)ccc1Nc1cc(Nc2cc(C)nc(C)n2)ncn1 [Example 22, N6-(2,6-dimethylpyrimidin-4-yl)-N4-[2-methoxy-4-(trifluoromethyl)phenyl]pyrimidine-4,6-diamine]	> 10	100 to 1000	
N4-(2,6-dimethylpyrimidin-4-yl)-N6-[4-(3-methylimidazol-4-yl)-2-methylsulfonyl-phenyl]pyrimidine-4,6-diamine [Example 26]	0.2 to 1		100 to 1000
COc1c(Nc2cc(Nc3cc(C)nc(C)n3)ncn2)cccc1C(F)(F)F [Example 18, N6-(2,6-dimethylpyrimidin-4-yl)-N4-[2-methoxy-3-(trifluoromethyl)phenyl] pyrimidine-4,6-diamine]	1 to 10	> 1000	
CN=S(C)(=O)c1cc(-c2cnn(C)c2C)cnc1Nc1cc(Nc2cc(C)nc(C)n2)ncn1 (stereo not shown) [Example 168, N6-[5-(1,5-dimethylpyrazol-4-yl)-3-(N,S-dimethylsulfonimidoyl)-2-pyridyl]-N4-(2,6-dimethylpyrimidin-4-yl)pyrimidine-4,6-diamine]	< 0.2	< 10	
Cc1cc(Nc2cc(Nc3ncc(-c4nnc(C)n4C)cc3N(C)S(C)(=O)=O)ncn2)nc(C)n1 [Example 134, N-[2-[[6-[(2,6-dimethylpyrimidin-4-yl)amino]pyrimidin-4-yl]amino]-5-(4,5-dimethyl-1,2,4-triazol-3-yl)-3-pyridyl]-N-methyl-methanesulfonamide]	0.2 to 1	> 1000	
COc1c(Nc2cc(Nc3cc(C)nc(C)n3)ncn2)cccc1-c1ncn(C2CC2(F)F)n1 (stereo not shown) [Example 55, N6-[3-[1-(2,2-difluorocyclopropyl)-1,2,4-triazol-3-yl]-2-methoxy-phenyl]-N4-(2,6-dimethylpyrimidin-4-yl)pyrimidine-4,6-diamine]	0.2 to 1	10 to 100	
COc1cc(C2CCOC2)ccc1Nc1cc(Nc2cc(C)nc(C)n2)ncn1 (stereo not shown) [Example 117, N4-(2,6-dimethylpyrimidin-4-yl)-N6-(2-methoxy-4-tetrahydrofuran-3-yl-phenyl)pyrimidine-4,6-diamine]	1 to 10	> 1000	
COc1c(Nc2cc(Nc3cc(C)ncn3)ncn2)cccc1-c1ncn(C)n1 [Example 33, N6-[2-methoxy-3-(1-methyl-1,2,4-triazol-3-yl)phenyl]-N4-(6-methylpyrimidin-4-yl)pyrimidine-4,6-diamine]	< 0.2	10 to 100	

The next lines start with the values.

Kd [1] [nM]	IC50 ([2]; Homo sapiens, HEK293) [nM]	IC50 [2] [nM]	Compound
< 0.2	< 10		Cc1cc(Nc2cc(Nc3nccc(C)c3S(C)(=O)=O)ncn2)nc(C)n1 [Example 150, N4-(2,6-dimethylpyrimidin-4-yl)-N6-(4-methyl-3-methylsulfonyl-2-pyridyl)pyrimidine-4,6-diamine]
< 0.2	10 to 100		CN=S(C)(=O)c1cccnc1Nc1cc(Nc2cc(C)nc(C)n2)ncn1 (stereo not shown) [Example 164, N4-(2,6-dimethylpyrimidin-4-yl)-N6-[3-(N,S-dimethylsulfonimidoyl)-2-pyridyl]pyrimidine-4,6-diamine]
< 0.2	< 10		CN=S(C)(=O)c1cc(-c2cnn(C)c2C)ccc1Nc1cc(Nc2cc(C)nc(C)n2)ncn1 (stereo not shown) [Example 113, N4-[4-(1,5-dimethylpyrazol-4-yl)-2-(N,S-dimethylsulfonimidoyl)phenyl]-N6-(2,6-dimethylpyrimidin-4-yl)pyrimidine-4,6-diamine]
< 0.2	10 to 100		Cc1cc(Nc2cc(Nc3ncc(-c4ncc(C)n4C)cc3N(C)S(C)(=O)=O)ncn2)nc(C)n1 [Example 140, N-[5-(1,5-dimethylimidazol-2-yl)-2-[[6-[(2,6-dimethylpyrimidin-4-yl)amino]pyrimidin-4-yl]amino]-3-pyridyl]-N-methyl-methanesulfonamide]
< 0.2	10 to 100		Cc1cc(Nc2cc(Nc3ncc(-c4cnc(C)n4C)cc3N(C)S(C)(=O)=O)ncn2)nc(C)n1 [Example 142, N-[5-(2,3-dimethylimidazol-4-yl)-2-[[6-[(2,6-dimethylpyrimidin-4-yl)amino]pyrimidin-4-yl]amino]-3-pyridyl]-N-methyl-methanesulfonamide]
< 0.2	10 to 100		COc1c(Nc2cc(Nc3cc(C)nc(C)n3)ncn2)cccc1-c1ncn(CC2COC2)n1 [Example 51, N6-(2,6-dimethylpyrimidin-4-yl)-N4-[2-methoxy-3-[1-(oxetan-3-ylmethyl)-1,2,4-triazol-3-yl]phenyl]pyrimidine-4,6-diamine]
< 0.2	< 10		Cc1cc(Nc2cc(Nc3ccc(Cc4ccccc4)cc3N(C)S(C)(=O)=O)ncn2)nc(C)n1 [Example 109, N-[5-benzyl-2-[[6-[(2,6-dimethylpyrimidin-4-yl)amino]pyrimidin-4-yl]amino]phenyl]-N-methyl-methanesulfonamide]
< 0.2	10 to 100		Cc1cc(Nc2cc(Nc3ncc(-c4c(C)nn(C)c4C)cc3N(C)S(C)(=O)=O)ncn2)nc(C)n1 [Example 88, N-[2-[[6-[(2,6-dimethylpyrimidin-4-yl)amino]pyrimidin-4-yl]amino]-5-(1,3,5-trimethylpyrazol-4-yl)-3-pyridyl]-N-methyl-methanesulfonamide]
< 0.2	10 to 100		Cc1c(-c2cnc(Nc3cc(NC(=O)[C@H]4C[C@H]4F)ncn3)c(N(C)S(C)(=O)=O)c2)cnn1C [Example 160, (1R,2R)-N-[6-[[5-(1,5-dimethylpyrazol-4-yl)-3-[methyl(methylsulfonyl)amino]-2-pyridyl]amino]pyrimidin-4-yl]-2-fluoro-cyclopropanecarboxamide]
< 0.2	10 to 100		Cc1cc(Nc2cc(Nc3ccc(C4CCOC4)cc3N(C)S(C)(=O)=O)ncn2)nc(C)n1 (stereo not shown) [Example 111, N-[2-[[6-[(2,6-dimethylpyrimidin-4-yl)amino]pyrimidin-4-yl]amino]-5-tetrahydrofuran-3-yl-phenyl]-N-methyl-methanesulfonamide]
< 0.2	10 to 100		[2H]C([2H])([2H])N(c1cccnc1Nc1cc(Nc2cc(C)nc(C)n2)ncn1)S(C)(=O)=O [Example 121, N-[2-[[6-[(2,6-dimethylpyrimidin-4-yl)amino]pyrimidin-4-yl]amino]-3-pyridyl]-N-(trideuteriomethyl)methanesulfonamide]
< 0.2	10 to 100		Cc1cc(Nc2cc(Nc3cc(F)ccc3N(C)S(C)(=O)=O)ncn2)nc(C)n1 [Example 75, N-[2-[[6-[(2,6-dimethylpyrimidin-4-yl)amino]pyrimidin-4-yl]amino]-4-fluorophenyl]-N-methylmethanesulfonamide]
